Results: US10145848B2, “Small-molecule hydrophobic tagging of fusion proteins and induced degradation of same” (YALE UNIVERSITY, priority 2010, dated 2018)
Residues, ends and D or L forms follow the SMILES beside them. *: point of attachment. Cbz = O=C(OCc1ccccc1)*

Assays:
Type in all cases: cell-based
[1] = biological target: T1, luciferase-HaloTag fusion protein (Rhodococcus rhodochrous, UniProt P0A3G2, C176G/H272F/K175M/Y273L); experiment: Luciferase assay in HEK 293T cells expressing luciferase-HaloTag; details: 1 μM, 24 hours
T1 construct: The HaloTag protein was obtained from pHT2 vector (Promega); luciferase (from pGL3-Basic); expressed in transfected cells
Method: (a) Chemical structures of the representative HaloTag Ligands: HyT5, HyT12, HyT13, HyT16, HyT21 and HyT22. (b) HEK 293T cells expressing HA-HaloTag-luciferase were treated with indicated compounds at 1 μM for 24 hours, at which point luciferase assays were performed.
Ten thousand stable HEK 293T cells infected with HA-luciferase-HaloTag were plated into each well in a 96-well plate. The next day, indicated HyT compounds were added in triplicate and the cells were cultured for another 24 hours. The cells were washed once with cold PBS and lysed in Passive Lysis Buffer (Promega). The luciferase activity was performed by Steady-Glo Luciferase Assay System (Promega) on a Wallac Victor 2 Plate Reader (Perkin Elmer) and the luciferase activity was normalized by protein concentration, as determined by the Bradford assay.
The inventors designed 21 structurally distinct scaffolds as the basis for our hydrophobic Tags (HyTs), and synthesized and tested 30 compounds across these scaffolds composed of hydrophobic moieties linked to the HaloTag haloalkane reactive linker (Table 1, FIG. 5). […]

[2] = biological target: T2, HA-EGFP-HaloTag fusion protein (Rhodococcus rhodochrous, UniProt P0A3G2, C176G/H272F/K175M/Y273L); experiment: Immunoblotting of HA-EGFP-HaloTag in Flp-In 293 cells; details: 10 μM pretreatment 1 hour, then 1 μM HyT13, 6 hours
T2 construct: The HaloTag protein was obtained from pHT2 vector (Promega); expressed in transfected cells
Method: Flp-In 293 cells expressing HA-EGFP-HaloTag were treated with indicated concentrations of HyT13 for 24 hours. The lysates were probed with anti-HA and anti-β-actin antibodies, with β-actin serving as a loading control. Shown is quantification of three separate experiments, with error bars representing SEM.
Flp-In 293 cells expressing HA-EGFP-HaloTag cells were treated for the indicated times with 1 μM HyT13 and the lysates were probed with anti-HA and anti-β-actin antibodies. The rightmost sample was treated with HyT13 for 24 hours, after which HyT13-free media was provided for 24 hours. Shown is quantification of three separate experiments, with error bars representing SEM.
The indicated cells were washed twice with cold PBS and the cells were lysed in lysis buffer (1×PBS, 1% NP-40, 1 mM EDTA, 40 mM HEPES) with protease inhibitors. The lysates were cleared by centrifugation at 10,000 g for 5 min. The total protein concentration was determined by Bradford assay and 50 μg of protein was loaded onto an 8% Bis-Tris gel. To solubilize polyubiquitinated and aggregated proteins upon proteasome inhibition^42 samples generated for FIG. 12d were lysed with a SDS lysis buffer (1×PBS, 1% NP-40, 1% SDS, 1% sodium deoxycholate, 1 mM EDTA, 40 mM HEPES) with protease inhibitors. The blots were processed by standard procedures with indicated antibodies, and the band intensities were quantified by ImageJ.
As the luciferase assay relied on the loss-of-activity of the luciferase-HaloTag fusion protein, we wanted to determine whether the decrease in luciferase activity resulted from the degradation of the entire fusion protein or perhaps simply inhibition of luciferase activity. We generated a stable Flp-In 293 cell line with a single integration site containing HA-EGFP-HaloTag fusion protein, and employed this cell line to perform kinetic studies with HyT13. […] Consistent with our previous observations, treatment of these cells with 1 μM of HyT13 for 24 hours reduced the mean fluorescence intensity of cells almost 7-fold. Together, these findings provide the first experimental evidence that hydrophobic tagging represents a viable strategy for the control of protein levels.

HEK293 or HeLa cells = experiment: Cell viability with Resazurin (alamarBlue); details: indicated concentration, 24 hours
Method: HEK293 or HeLa cells were treated with indicated concentrations of HyT13 for 24 hours. The oxidation-reduction indicator Resazurin (alamarBlue, Invitrogen) was employed to determine cell viability.

Row | Compound | luciferase activity [1] | effect of proteasome inhibitor on HyT13 mediated degradation [2] | cellular toxicity (positive control) (HEK293 or HeLa cells)
1 | NCCOCCOCCOCCn1cc(CCC(=O)NCCOCCOCCOCC(=O)NCCOCCOCCCCCCCl)nn1 [HyT5, 3-(1-(2-(2-(2-(2-aminoethoxy)ethoxy)ethoxy)ethyl)-1H-1,2,3-triazol-4-yl)-N-(24-chloro-11-oxo-3,6,9,15,18-pentaoxa-12-azatetracosyl)propanamide] | did not decrease the luciferase activity | – | –
2 | CC(C)C[C@@H](C=O)NC(=O)[C@H](CC(C)C)NC(=O)[C@H](CC(C)C)NC(=O)OCc1ccccc1 [MG132, reference compound] (Cbz-Leu-Leu-Leu-aldehyde) | – | blocked HyT13 mediated degradation | –
3 | CC(=O)NC(CCc1ccccc1)C(=O)NC(CC(C)C)C(=O)NC(Cc1ccccc1)C(=O)NC(CC(C)C)C(=O)C1(C)CO1 (stereo not shown) [YU101, reference compound] | – | blocked HyT13 mediated degradation | toxic to cells
